{"source": "paper PMC4707489", "about": "“A novel cell-penetrating peptide suppresses breast tumorigenesis by inhibiting β-catenin/LEF-1 signaling” (Scientific Reports, 2016)", "key": {"MCF-7 cells [1]": {"test_system": "MCF-7 cells", "experiment": "Colony-formation assay", "assay_type": "cell-based, human", "details": "MCF-7, 100 μmol/l, 14 day post-transfection (Fig. 3e)", "description": "(§1) Transwell chambers of […] pore size were used in the in vitro invasion assay. MCF-7 and MDA-MB-231 cells were seeded onto the upper chamber and incubated with TAT-NLS-BLBD-6 and TAT-NLS-BLBD-6m peptide and 10% fetal bovine serum medium were added to the bottom chamber well. After 24 hr, cells invading the lower chamber were fixed with 4% paraformaldehyde solution and stained with 0.1% crystal violet for 30 min at 37 °C. Three random field images were obtained by microscopy, and the number of invading cells were counted. For the migration assay, MCF-7 and MDA-MB-231 cells were seeded onto 6-well plates. After 24 hr, an artificial wound was created using a 10-μl pipette tip, and the wound was incubated with TAT-NLS-BLBD-6 or TAT-NLS-BLBD-6m for 24 hr at 37 °C. The images of wound healing were captured by microscopy, and the wound healing distances were calculated by Image J (U.S. National Institutes of Health, Bethesda, MD, USA). For the colony formation assay, MCF-7 and MDA-MB-231 cells were seeded into 10-cm dishes with the medium containing TAT-NLS-BLBD-6 or TAT-NLS-BLBD-6m. After 2 weeks, cells were fixed with 4% paraformaldehyde solution and stained with 0.1% crystal violet for 30 min at 37 °C."}, "MDA-MB-231 cells [2]": {"test_system": "MDA-MB-231 cells", "experiment": "Colony-formation assay", "assay_type": "cell-based, human", "details": "MDA-MB-231, 100 μmol/l, 14 day post-transfection (Fig. 3e)", "description": "as §1"}, "[3]": {"test_system": "β-catenin/TCF4/LEF-1 downstream genes", "experiment": "Q-PCR of 27 candidate genes in MCF-7", "assay_type": "cell-based, human", "details": "MCF-7, 100 μmol/l, 48 hr post-transfection, relative to TAT-NLS-BLBD-6m (Fig. 6d)", "description": "(§2) Total RNA was isolated by Trizol reagent (Invitrogen, Carlsbad, CA, USA) and reverse transcribed to produce cDNA using the Deoxy + HiSpec reverse transcriptase kit (Yeastern, Taipei, Taiwan) according to the manufacturer instructions. Q-PCR was analyzed with SYBR Green Master Mix (Applied Biosystems, Stockholm, Sweden) and subjected to quantitation in an […]. The primers used for PCR are given in Supplementary Table S5 online. The Q-PCR data were normalized to 18S cDNA levels."}, "[4]": {"test_system": "β-catenin/TCF4/LEF downstream genes", "experiment": "Q-PCR of downstream genes in ZR-75-30", "assay_type": "cell-based, human", "details": "ZR-75-30, 100 μmol/l, 48 hr post-transfection, relative to TAT-NLS-BLBD-6m (Fig. 6g)", "description": "as §2"}, "MCF-7 cells [5]": {"test_system": "MCF-7 cells", "experiment": "Transwell invasion assay", "assay_type": "cell-based, human", "details": "MCF-7, 100 μmol/l, 48 hr post-transfection, vs control or TAT-NLS-BLBD-6m (Fig. 3c)", "description": "as §1"}, "MDA-MB-231 cells [6]": {"test_system": "MDA-MB-231 cells", "experiment": "Transwell invasion assay", "assay_type": "cell-based, human", "details": "MDA-MB-231, 100 μmol/l, 48 hr post-transfection, vs control or TAT-NLS-BLBD-6m (Fig. 3c)", "description": "as §1"}, "[7]": {"test_system": "MCF-7-GFP cells in zebrafish embryos", "experiment": "Zebrafish xenotransplantation, fluorescence density", "assay_type": "in vivo, Danio rerio", "details": "MCF-7-GFP co-injected with 100 μmol/l peptide into yolk sacs, between 24 hr and 48 hr, n = 20 per group, vs TAT-NLS-BLBD-6m", "description": "(§3) All animal experiments were approved by the Kaohsiung Medical University Institutional Animal Care and Use Committee (IACUC Approval No: 101156) and we accordance with the approved guidelines. Female nude mice (4–5 weeks old) were obtained from the National Laboratory Animal Center (Taipei, Taiwan). Xenograft tumor models were established by subcutaneous injection of 1 × 10^7 MCF-7-YFP or MDA-MB-231-GFP cells into the right flanks of mice. Mice with palpable tumors were randomly divided into three groups with five animals in each group. The mice were treated with control peptide, 0, 1 and 10 mg/kg TAT-NLS-BLBD-6 by intratumoral injection once every 2 days for 35 days. The fluorescence density was analyzed by an In Vivo Imaging System (IVIS) (Berthold Technologies, Bad Wildbad, Germany), and the tumor volumes (V) of nude mice were calculated by: V = length × diameter^2 × 0.5. For zebrafish xenotransplantation, zebrafishes (Danio rerio) were maintained at 28 °C in an air incubator, and 1 × 10^4 MCF-7-GFP or MDA-MB-231-GFP cells combined with TAT-NLS-BLBD-6 or control peptide were injected into the zebrafish embryos according to the previously described protocol. […]"}, "[8]": {"test_system": "MDA-MB-231-GFP cells in zebrafish embryos", "experiment": "Zebrafish xenotransplantation, fluorescence density", "assay_type": "in vivo, Danio rerio", "details": "MDA-MB-231-GFP co-injected with 100 μmol/l peptide into yolk sacs, between 24 hr and 48 hr, n = 20 per group, vs TAT-NLS-BLBD-6m", "description": "as §3"}}, "data": [{"substance": "H-TAT-NLS-ATDEMIPF-NH2 [TAT-NLS-BLBD-6]", "values": [{"measurement": "colony formation", "setting": "MCF-7 cells [1]", "value": "inhibited the mobility and proliferation"}, {"measurement": "colony formation", "setting": "MDA-MB-231 cells [2]", "value": "inhibited the mobility and proliferation"}, {"measurement": "gene expression of the 27 candidate genes", "setting": "[3]", "value": "decreased"}, {"measurement": "expression of β-catenin/TCF4/LEF downstream genes", "setting": "[4]", "value": "inhibits"}, {"measurement": "invasion", "setting": "MCF-7 cells [5]", "value": "inhibited the mobility"}, {"measurement": "invasion", "setting": "MDA-MB-231 cells [6]", "value": "inhibited the mobility"}, {"measurement": "cell growth of normal mammary epithelial cells", "setting": "H184B5F5/M10 cells", "value": "did not inhibit the growth"}, {"measurement": "fluorescence density of transplanted tumor cells", "setting": "[7]", "value": "gradually reduced"}, {"measurement": "fluorescence density of transplanted tumor cells", "setting": "[8]", "value": "gradually reduced"}]}]}
